From patent US10064800B2, “Transglutaminase activator” (Kao Corporation, priority 2012, dated 2018)
Like-named read-outs stand apart in the source and are kept apart here. Each block holds one molecule with its values, some of them ahead of it.

Tests used:
[1] = test system: transglutaminase; assay: Measurement of transglutaminase activity in lysate of treated keratinocytes (Transglutaminase Colorimetric Microassay Kit); type: cell-based, human; conditions: for Transglutaminase activity: HEKn cells, 3 days, relative value, n = 3
[2] = test system: Normal human epidermal keratinocytes NHEK(F); assay: Verification of ceramide production enhancing effect (TLC of cell lipids); type: cell-based; conditions: 3 days, 0.1 μM, relative value, 50 vol % ethanol = 1
Procedure: Normal human epidermal keratinocytes (trade name: NHEK(F), manufactured by Kurabo Industries, Ltd.) were cultured under the conditions of 37° C. and 5% CO2, in a culture medium (trade name: EpiLife-KG2, manufactured by Kurabo Industries, Ltd.) using a culture plate.
Thereafter, the culture medium was exchanged with EpiLife-KG2 without growth factors such as epidermal growth factor, and a dilution prepared from the extract from Justicia procumbens prepared in the Preparation Example 1-2, the concentration of which was adjusted to 1 w/v % in terms of solids content, […] Alternatively, the culture medium was exchanged with EpiLife-KG2 without growth factors such as epidermal growth factor, and a dilution prepared from the extract from Peristrophe japonica prepared in the Preparation Example 2-2, the concentration of which was adjusted to 1 w/v % in terms of solids content, was added to the culture fluid in an amount of 0.1%. […]
Further, 0.1 N NaOH and a 1% aqueous SDS solution were added to the cells from which lipids had been extracted, and the mixture was heated at 60° C. for 2 hours to thereby solubilize proteins. […] The amount of proteins was quantified by the BCA method. […]
A ceramide amount was measured using recovered cells in a manner similar to Test Example 2-1. […]

[3] = test system: IVL gene; assay: Evaluation of IVL gene expression (Real-time RT-PCR, HaCaT); type: cell-based, human; conditions: 24 hours, 0.01 μM, corrected by RPLPO, relative value, DMSO = 1
Procedure: Human epidermal keratinocyte line HaCaT was cultured in a culture medium in which 10% fetal calf serum inactivated, and 1% penicillin-streptomycin (manufactured by Gibco Laboratories) were added to DMEM (manufactured by Gibco Laboratories), under conditions of 37° C. and 5% CO2.
In a 6-well plate, HaCaT cells were seeded in an amount of 5×10^4 pieces/well, and cultured. On the following day, exchange was carried out for a culture medium containing the exemplified compound (18) at a final concentration shown in Table 10, and culture was further carried out for 24 hours. In place of the exemplified compound (18), as a control, exchange was carried out for a culture medium containing at a final concentration of 0.1% v/v DMSO being a solvent, and culture was further carried out for 24 hours, and thus the resultant cultured product was used. After 24 hours from addition of the exemplified compound (18), the cells were washed twice using PBS(−), and total RNA was extracted using RNeasy (registered trademark) Mini Kit (manufactured by QIAGEN). A concentration of total RNA was measured, and a fixed amount of total RNA was used as a template, and a reverse transcription reaction was carried out using High capacity RNA-to-cDNA Kit (trade name, manufactured by Applied Biosystems, Inc.).
IVL gene expression was quantitatively determined from the resultant cDNA by Real-time RT-PCR. […]

[4] = evaluated conc. 1 μM, control DMSO = 1
[5] = evaluated conc. 0.01 μM, control DMSO = 1
[6] = evaluated conc. 0.1 μM, control DMSO = 1
[7] = fractions from Justicia procumbens extract, result in words

Molecule: COc1cc([C@@H]2c3cc4c(c(OC)c3C[C@H]3COC(=O)[C@@H]32)OCO4)cc(OC)c1OC [(1), reference compound]
- Transglutaminase activity [1, 4]: 0.24 ± 0.21

Molecule: COc1cc([C@@H]2c3cc4c(cc3C[C@H]3COC(=O)[C@@H]32)OCO4)cc(OC)c1OC [(2), reference compound]
- Transglutaminase activity [1, 4]: 0.20 ± 0.18

Molecule: COc1c2c(c(-c3ccc4c(c3)OCO4)c3cc4c(cc13)OCO4)C(=O)OC2 [(3), reference compound]
- Transglutaminase activity [1, 5]: 0.75 ± 0.49
- Transglutaminase activity [1, 6]: 0.97 ± 0.43
- Transglutaminase activity [1, 4]: 0.70 ± 0.24

Molecule: COc1cc2c(OC)c3c(c(-c4cc5c(cc4O)OCO5)c2cc1OC)C(=O)OC3 [(4), reference compound]
- Transglutaminase activity [1, 5]: 0.60 ± 0.28
- Transglutaminase activity [1, 6]: 0.39 ± 0.10
- Transglutaminase activity [1, 4]: 0.22 ± 0.08

Molecule: O=C1OCc2cc3ccccc3c(-c3ccccc3)c21 [Exemplified compound (11), 9-phenylnaphtho[2,3-c]furan-1(3H)-one]
- Transglutaminase activity [1, 5]: 1.10 ± 0.22
- Transglutaminase activity [1, 6]: 1.29 ± 0.40
- Transglutaminase activity [1, 4]: 1.48 ± 0.22

Molecule: COc1cc2cc3c(c(-c4ccc5c(c4)OCO5)c2cc1OC)C(=O)OC3 [Exemplified compound (12), 6,7-dimethoxy-9-(1,3-benzodioxol-5-yl)naphtho[2,3-c]furan-1(3H)-one]
- Ceramide amount (Average value in n = 2) [2]: 1.30
- Transglutaminase activity [1, 5]: 1.20 ± 0.16
- Transglutaminase activity [1, 6]: 2.80 ± 1.73
- Transglutaminase activity of isolated HPLC fraction [1, 7]: confirmed to exist

Molecule: COc1cc2c(O)c3c(c(-c4ccc5c(c4)OCO5)c2cc1OC)C(=O)OC3 [Exemplified compound (13), 4-hydroxy-6,7-dimethoxy-9-(1,3-benzodioxol-5-yl)naphtho[2,3-c]furan-1(3H)-one]
- Transglutaminase activity [1, 5]: 1.95 ± 0.53
- Transglutaminase activity [1, 6]: 1.75 ± 0.61

Molecule: COc1cc2c(OC)c3c(c(-c4ccc5c(c4)OCO5)c2cc1OC)C(=O)OC3 [Exemplified compound (14), 4,6,7-trimethoxy-9-(1,3-benzodioxol-5-yl)naphtho[2,3-c]furan-1(3H)-one]
- Transglutaminase activity [1, 5]: 1.22 ± 0.51
- Transglutaminase activity [1, 6]: 2.42 ± 0.55
- Transglutaminase activity [1, 4]: 2.19 ± 0.98
- Transglutaminase activity of isolated HPLC fraction [1, 7]: confirmed to exist

Molecule: CCOc1c2c(c(-c3ccc4c(c3)OCO4)c3cc(OC)c(OC)cc13)C(=O)OC2 [Exemplified compound (15), 4-ethoxy-6,7-dimethoxy-9-(1,3-benzodioxol-5-yl)naphtho[2,3-c]furan-1(3H)-one]
- Transglutaminase activity [1, 5]: 1.25 ± 0.22
- Transglutaminase activity [1, 6]: 1.33 ± 0.39
- Transglutaminase activity [1, 4]: 1.66 ± 0.33

Molecule: COc1cc2c(OC(C)=O)c3c(c(-c4ccc5c(c4)OCO5)c2cc1OC)C(=O)OC3 [Exemplified compound (16), 4-acetoxy-6,7-dimethoxy-9-(1,3-benzodioxol-5-yl)naphtho[2,3-c]furan-1(3H)-one]
- Transglutaminase activity [1, 6]: 1.46 ± 0.54
- Transglutaminase activity [1, 4]: 2.10 ± 0.86

Molecule: O=C1OCc2cc3ccc4c(c3cc21)OCO4 [Exemplified compound (19), furo[3′,4′,6,7]naphtho[1,2-d]-1,3-dioxole-9(7H)-one]
- Transglutaminase activity [1, 6]: 1.98 ± 0.83
- Transglutaminase activity [1, 4]: 2.37 ± 0.26

- Transglutaminase activity ([1]; CaCl2 1.5 mM positive control, control = 1): 1.51 ± 0.20
Molecule: [Ca+2].[Cl-].[Cl-] [Positive control (Ca^2+), CaCl2, reference compound]

Molecule: Tuberculatin-5″-acetate [Exemplified compound (18)]
- Transglutaminase activity of isolated HPLC fraction [1]: confirmed to exist
- Transglutaminase activity [1, 6]: 2.78 ± 0.19
- Transglutaminase activity [1, 4]: 5.44 ± 0.19
- IVL gene amount (Average value in n = 2) [3]: 1.32
